Like-named read-outs stand apart in the source and are kept apart here.
How the values were obtained:
HL60 cells [1] = assay: FACS flow cytometry for cd11b in HL60 cells (differentiation control); type: cell-based; conditions: HL60, 1 uM ATRA, 72 hrs
Method: (§1) K562 cells were treated with 1 μM (Subapoptotic dose) and 7.5 μM ORM (Apoptotic dose) for 24 h and 48 hrs. Post 24 h and 48 h treatment, cells were analyzed in FACS-flow cytometer for the presence of myeloid differentiation marker cd11b (FIG. 2). In parallel, HL60 cells were also treated with 1uM All-Trans-Retinoic Acid (ATRA) for 72 hrs which served as control for induction of differentiation. […] Isotype IgG-PE antibody served as negative control.

[2] = test system: myeloid leukemia cells (U937, HL60, K562); assay: MTT cell viability assay, myeloid leukemia cells; type: cell-based; conditions: leukemic cells (U937, HL60, K562), read-out: 50% growth inhibitory concentration (IC50)
Method: FIG. 1: ORM induces cell toxicity in myeloid leukemia cells: (a) Chemical structure of ormeloxifene. […] Assay was performed on 3 replicates for each treatment and repeated twice.
(§2) 2. MTT assay: Post 6 h synchronization, 1×10^4 cells per well were incubated at 37° C. in 96-well plastic plates with test drugs containing 10% FBS in an environment of 5% humified CO2. After 48 hrs, cell viability was assessed by the ability of metabolically active cells to reduce tetrazolium salt […] to coloured formazan compounds. The absorbance of the samples was measured with a specific enzyme-linked immunosorbent assay (ELISA) reader at 560 nm.
(§3) To calculate 50% growth inhibitory concentration (IC50) of ormeloxifene, various myeloid leukemia cells (U937, HL60, K562) and HEK293T as control were assayed with different doses of ormeloxifene for cell viability in MTT Assay. […] Various apoptosis assays were performed in myeloid leukemia cells upon treatment with ormeloxifene that induces G0-G1 phase growth arrest and caspase mediated apoptosis in myeloid leukemia via ERK activation.

HEK293T = assay: MTT cell viability assay, HEK293T control; type: cell-based; conditions: Homo sapiens, HEK-293T, 293T control cells, 48 hrs, read-out: 50% growth inhibitory concentration (IC50)
Method: as §2, §3

K562 cells [3] = assay: FACS flow cytometry for cd11b in K562 cells; type: cell-based; conditions: 24 and 48 h
Method: (§4) 7. FACS analysis: Cells were treated with 1 uM ORM for 24 h and 48 h. Then they were washed with 1×PBS and resuspended in antibody solution along with their respective IgG isotype control for 15-20 min as per manufacturer's protocol. Cells were washed once with PBS and were resuspended in 500 ul of PBS. After this flow cytometry was done for PI labeled cells for cd11b and cd114 differentiation markers (BD Biosciences).
as §1

K562 cells [4] = assay: Giemsa staining morphology, K562 cells; type: cell-based
Method: (§5) 3. Giemsa staining: Giemsa stain is used to differentiate nuclear and cytoplasmic morphology of blood cells. After induction with 1 uM ORM for 12 days cells were cytospun on slides at 800 rpm for 5 min and were air dried. Cells were stained with Giemsa stain (Sigma) as per manufacturer's protocol. Cells were visualized microscopically for the morphological changes.
To further corroborate the differentiation inducing potential of ORM, K562 cells were again treated with 1.0 uM ORM and vehicle for 12 days followed by cytospin and staining with Giemsa for assessment of morphological changes. […] It is noteworthy to mention here that at higher doses (5 uM to 7.5 uM) there is early onset of myeloid differentiation (72 h for 5 uM and 24,48 h for 7.5 uM) with reduced no. of cells which is likely due to apoptotic effects of ORM at higher dose. In contrary, at lower doses (1 uM) differentiation is observed after longer duration (6-15 days) with quite reduced apoptotic effect.

K562 cells [5] = assay: NBT reduction assay, K562 cells; type: cell-based; conditions: K562, 7.5 uM ORM 24 h and 48 hrs, 1 uM 6 days
Method: 4. NBT assay: The NBT Assay relies on the accumulation of blue black formazan precipitate. The membrane permeable, water soluble, yellow NBT is reduced to blue black formazan by O^−2, which is generated by activated neutrophils/phagocytes, typically by PMA. PMA activates NADPH oxidase by enhancing protein kinase C (PKC) and thus stimulates production of ROS (reactive oxygen species). After induction with 7.5 uM ORM for 24 h and 48 hr and with 1 uM ORM for 6 days cells were incubated in NBT solution for 15 min. at 37° C. Cells were washed with PBS and were resuspended in 500 ul PBS and cytospun on slides and stained with safranin O for 1 min. Number of cells showing blue-purple colouration were counted under microscope.
In order to further confirm the ORM induced differentiation in myeloid leukemia cells, Nitro Blue Tetrazolium (NBT) reduction assay is carried out which is a biochemical assay wherein activated granulocytes can reduce NBT to insoluble purple blue colour precipitates. Further, because ORM induces apoptosis at 7.5 uM in K562 cells; we treated K562 cells with 7.5 uM for 24 h and 48 hrs and 1 uM doses for longer duration, 6 days. Cells were subjected for NBT reduction analysis. […] This further confirmed differentiation inducing potential of ORM.

K562 cells [6] = assay: ROS generation by flow cytometry (DCF-DA), K562 cells; type: cell-based; conditions: K562, 1 uM ORM
Method: FIG. 5: ORM at a dose of 1 uM induces ROS generation: A property of activated neutrophils: Flow cytometry analysis was performed for the ROS generation in K562 cells after treatment with 1 uM ORM for 24 h and 48 h. Cells were labeled with DCF-DA dye and fluorescence was measured.
Furthermore, ORM induces granulocytic differentiation in K562 cells, it should lead to terminal differentiation of these cells to activated neutrophils. To substantiate further the induction of granulocytic differentiation and neutrophil formation, we measured the ROS generation, which is a property of activated neutrophils by FACS flow cytometer.

K562 cells [7] = assay: Real time and semi quantitative PCR of differentiation markers, K562 cells; type: cell-based
Method: 5. Quantitative PCR (Real Time) and semi quantitative PCR Analysis: After induction of cells with ORM for indicated time points cells were harvested and RNA was isolated using Trizol reagent. Trizol was added to 1×10^6 cells for 5 min at room temp. Lysed cells were collected in micro centrifuge tubes and shaken vigorously for 15 sec, and incubated for 3 min at RT. 200 μl of chloroform was added to each sample and incubated yet again for 5 min at RT. Cells were centrifuged at 15,000 rpm for 15 min at 4° C. Supernatant was collected in fresh tube; 1 ml isopropanol was added and incubated for 10 min at RT. Pellet was washed once with 70% ethanol and RNA concentration was quantified. Further, RNA was retro-transcribed into cDNA and subsequently used for quantitative PCR analysis on Roche Light Cycler 480 using SYBR green master mix from Applied Biosystems. Statistical analysis was performed using ΔΔCT method. Reverse transcriptase PCR was done to check the mRNA level expression of GCSFr qualitatively. RT-PCR analysis was performed using standardized PCR protocol on BioRad C1000 Thermal Cycler.

[8] = test system: primary cells isolated from CML patients; assay: FACS for cd11b and cd114 in primary mononuclear cells from CML patients; type: cell-based, human; conditions: CML patient mononuclear cells, 1 uM ORM, 24 and 48 hr
Method: FIG. 6: ORM induces myeloid differentiation in primary cells isolated from CML patients PBMCs were isolated from patient samples and were analyzed by FACS for cd11b positive cells.
6. PBMC separation from patient sample: 10 ml peripheral blood was collected by venipuncture heparin-containing 20 ml vials. Peripheral blood mononuclear cells were isolated using density gradient centrifugation with Ficoll-Paque (1.077 g/ml). Peripheral blood was mixed in 1:1 v/v of MACS buffer and was fractionated through Ficoll-Paque. Mononuclear cells were collected from the interface, washed twice in MACS buffer and resuspended in RPMI 1640 at 37° C. in the humidified atmosphere of 5% CO2.
as §4, with “After this flow cytometry was done for PI labeled cells for cd11b and cd114 differentiation markers (BD Biosciences).” left out
Although recent studies using differentiation therapies in oncology have been successful for acute promyelocytic leukemia (APL) with the use of all-trans retinoic acid (ATRA) (S. Waxman, Leukemia, 2000, 14(3):491-496), little is known about exact mechanisms of differentiation. […] Cells were treated with 1 uM ORM and were analyzed for expression of cd11b and cd114 surface markers after 24 and 48 hr.

HL60 cells [9] = assay: Morphology after long ORM treatment, HL60 cells; type: cell-based; conditions: HL60, 1 uM ORM, 12 and 15 days
Method: (§6) FIG. 7: ORM at 1 uM dose induces differentiation like morphology both in HL60 and U937 cells: (a) HL60 and (b) U937 cells were treated with 1 uM ORM for 12 and 15 days and there was change in the morphology of cells by decrease in the nuclear and cytoplasmic ratio and formation of multilobed nuclei which is typical for neutrophilic differentiation.
as §5
(§7) Profound granulocytic differentiation inducing property of ormeloxifene in K562 prompted us to investigate if ORM can also induce such differentiation in other myeloid leukemia cell lines. So we further chose HL60 and U937, a promyelocyte and myelomonocyte leukemia cell line. These cells differentiate to granulocyte lineage upon induction with all trans-retinoic acid (ATRA) and represent a very good model cell line for such differentiation assays. These cells were treated with 1 uM ORM for longer duration of 12 and 15 days followed by assessment of granulocytic/neutrophil like morphology.

U937 cells = assay: Morphology after long ORM treatment, U937 cells; type: cell-based; conditions: U937, 1 uM ORM, 12 and 15 days
Method: as §6, §5, §7

[10] = test system: HL60, U937 and K562 cells; conditions: P. Pal et al., Proteomics 2011, read-out: IC50 inducing apoptosis; cited from earlier work
advanced breast cancer = conditions: cited from earlier work
Salmonella = conditions: Giri et al., Mutagenesis 1999; cited from earlier work
[11] = K562, 1 uM ORM, 24 and 48 h, real time PCR

CC1=C(/C=C/C(C)=C/C=C/C(C)=C/C(=O)O)C(C)(C)CCC1 [ATRA, All-Trans-Retinoic Acid]
cd11b early myeloid differentiation marker (HL60 cells [1]): increased

COc1ccc2c(c1)OC(C)(C)C(c1ccccc1)C2c1ccc(OCCN2CCCC2)cc1 (stereo not drawn) [ORM, 3,4-trans-2,2-dimethyl-3-phenyl-4-p-(beta-pyrrolidinoethoxy)phenyl-7-methoxychroman]
IC50 ([2]; 48 h): ~7.5 µM | IC50 ([2]; 48 hrs): ~7 µM | IC50 (HEK293T): 25 µM | cells expressing cd11b marker (K562 cells [3]; K562, 1.0 uM ORM): increased percentage of cells expressing CD11b markers | cells expressing cd11b marker (K562 cells [3]; K562, 7.5 uM ORM): Reduced number of cd11b expressing cells | morphological changes (Giemsa) (K562 cells [4]; K562, 1.0 uM ORM, 12 days): differentiated cells having neutrophil like morphology were observed | morphological changes (Giemsa) (K562 cells [4]; K562, 5 uM ORM, 72 hrs): neutrophil like morphological changes | NBT reduction (K562 cells [5]): dramatic increase in NBT reduction | ROS generation (K562 cells [6]): Significant upregulation in ROS generation | C/EBP epsilon mRNA expression (K562 cells [7]; [11]): increased mRNA expression | C/EBPalpha mRNA expression (K562 cells [7]; [11]): increased mRNA expression | GCSFr mRNA expression (K562 cells [7]; [11]): increased mRNA expression | cd11b mRNA expression (K562 cells [7]; [11]): increased mRNA expression | GCSFr mRNA expression (K562 cells [7]; K562, 7.5 uM ORM, 24 h and 48 h, quantitative and semi quantitative PCR): modest upregulation | level of GCSFr (K562 cells [7]; K562, Reverse transcriptase-PCR (FIG. 4f, g)): marked increase | expression of cd11b surface marker [8]: significant upregulation | expression of cd114 surface marker [8]: significant upregulation | granulocytic/neutrophil like morphology (HL60 cells [9]): large number of cells with multilobed nucleus | granulocytic/neutrophil like morphology (U937 cells): large number of cells with multilobed nucleus | IC50 [10]: 7.5 µM | overall response rate (advanced breast cancer; both male and female cases (4 male, 75 female)): 40.5% | overall response rate (advanced breast cancer; female patients): 38.7% | mutagenic effects of DMBA, CP, MMC and EMS (Salmonella): can reduce the mutagenic effects

— US9820968B2, “Anti-leukemic agent useful for inducing differentiation in myeloid leukemia cells” (Council of Scientific and Industrial Research, priority 2013, dated 2017)
